One data set has as its system DENV-2 NGC. The experiment in a line: Antiviral activity against DENV-2 NGC in Vero-B cells (viral RNA load by RT-qPCR). The format is cell-based, Dengue virus. As to conditions: Dengue virus, DENV2, Vero B, DENV-2 in Vero-B cells; inhibition of viral RNA replication by 50% (Table 3). Background: Real-time PCR tracks product formation cycle by cycle.
Data set [1] deals with DENV-1 Djibouti strain D1/H/IMTSSA/98/606. Briefly: Antiviral activity against DENV-1 in Vero-B cells (viral RNA load by RT-qPCR). The format is cell-based, Dengue virus. As to conditions: Dengue virus, DENV1, Vero B.
Data set [2] concerns DENV-3 strain H87 prototype. Briefly: Antiviral activity against DENV-3 in Vero-B cells (viral RNA load by RT-qPCR). Type of data set: cell-based, Dengue virus. As to conditions: Dengue virus, DENV3, Vero B.
In data set [3] the test system is DENV-4 strain Dak HD 34 460. The experiment in a line: Antiviral activity against DENV-4 in Vero-B cells (viral RNA load by RT-qPCR). The format is cell-based, Dengue virus. The settings on record: Dengue virus, DENV4, Vero B.
The nature of a further data set: in vitro. The settings on record: African green monkey, uninfected quiescent Vero-B cells.

pEC50: −log10 of the molar value.

Broadly, the pEC50 is −log10 of the EC50, conventionally taken in molar units. Higher therefore signals a low EC50. As usually defined, the CC50 is the concentration giving 50% cytotoxicity. Lower therefore signals harm at low concentration.

As for `COc1cncc(NC(C(=O)c2c[nH]c3ccccc23)c2ccc(OC)nc2)c1` (centres unmarked) [CPD-158], the pEC50 in the data set on DENV-2 NGC is 7.05; in data set [1], 5.60; in data set [2] it was 5.66; in data set [3], 5.14. Also, the midpoint of cytotoxicity in “in vitro”, the CC50 at 4 days, lay at 63 µM.
Regarding `COc1ccc(C(Nc2cccc(OC)c2)C(=O)c2c[nH]c3ccccc23)nc1` (centres unmarked) [CPD-310], the pEC50 in the data set with DENV-2 NGC was 7.22; in data set [1], 5.95; in data set [2], 6.19; in data set [3], 5.03. The molecule also gave a CC50 at 4 days in the data set “in vitro” of 25 µM.
For `COc1cc(NC(C(=O)c2nn(C)c3ccccc23)c2cccnc2)cc(OC)c1` (centres unmarked) [CPD-279], in that order: 6.74, 6.21, 6.05, 5.06 and over 124 µM.
With `COc1cccc(NC(C(=O)c2c[nH]c3c(C)cccc23)c2ccc(OC)nc2)c1` (centres unmarked) [CPD-332], the pEC50 was 7.40 with DENV-2 NGC, 6.14 in data set [1], 5.87 in data set [2] and 5.55 in data set [3]. The midpoint of cytotoxicity in the data set “in vitro”, the CC50 at 4 days, lay at 20 µM.
Turning to `COc1cccc(NC(C(=O)c2c[nH]c3cc(Cl)ccc23)c2cn3ccccc3n2)c1` (centres unmarked) [CPD-150], the pEC50 was 7.52 in the data set with DENV-2 NGC, 5.89 in data set [1], 5.97 in data set [2] and 5.05 in data set [3]. The molecule also displayed a CC50 at 4 days in “in vitro” of 105 µM.
For `COc1cccc(NC(C(=O)c2nn(C)c3ccccc23)c2ccccc2)c1` (centres unmarked) [CPD-203], in that order: 6.14, 5.29, 5.30, 5.27 and over 134 µM.
For `COc1cccc(NC(C(=O)c2c[nH]c3ccccc23)c2ccccn2)c1` (centres unmarked) [CPD-301], in that order: 7.10, 5.95, 6.30, 5.37 and 89 µM.
Turning to `COc1cccc(NC(C(=O)c2nn(C)c3ccccc23)c2ccc(C#N)cc2)c1` (centres unmarked) [CPD-260], the pEC50 in the data set with DENV-2 NGC was 7.10; in data set [1] it was 5.18; in data set [2] it was 4.65; in data set [3] it was 5.26. Moreover, the CC50 at 4 days in “in vitro” was over 126 µM.
Regarding `COc1cccc(NC(C(=O)c2c[nH]c3cc(F)ccc23)c2ccc(OC)nc2)c1` (centres unmarked) [CPD-213], the pEC50 in the data set with DENV-2 NGC is 7.22; in data set [1] it was 6.09; in data set [2], 5.60; in data set [3] it was 5.55. In the data set “in vitro”, this molecule came in with a cytotoxic concentration (CC50) at 4 days of 15 µM.
For `COc1cc(NC(C(=O)c2cn(C)c3ccccc23)c2ccccc2)cc(OCCO)c1` (centres unmarked) [CPD-305], the pEC50 in the data set on DENV-2 NGC is 7.05; in data set [1], 6.36; in data set [2] it was 5.99; in data set [3], 5.59. This molecule gave a CC50 at 4 days in “in vitro” of over 116 µM.
As for `COc1cncc(NC(C(=O)c2c[nH]c3cc(F)ccc23)c2ccccc2)c1` (centres unmarked) [CPD-157], the pEC50 with DENV-2 NGC was 7.30; in data set [1], 5.88; in data set [2] it was 6.07; in data set [3] it was 5.29. The CC50 at 4 days in the data set “in vitro” is 15 µM.
Take `COc1cccc(NC(C(=O)c2c[nH]c3ccccc23)c2ccc(C#N)nc2)c1` (centres unmarked) [CPD-314]: the pEC50 in the data set on DENV-2 NGC is 6.68; in data set [1] it was 5.77; in data set [2] it was 5.55; in data set [3] it was 5.06. It took 50 µM to reach half-maximal cytotoxicity in the data set “in vitro” (CC50 at 4 days).
Regarding `COc1cccc(NC(C(=O)c2c[nH]c3ccc(S(C)(=O)=O)cc23)c2ccccc2)c1` (centres unmarked) [CPD-229], the pEC50 with DENV-2 NGC is 5.62; in data set [1], 5.55; in data set [2], 4.37; in data set [3] it was 5.12. The same molecule had a CC50 at 4 days in “in vitro” of over 115 µM.
Take `COc1cccc(NC(C(=O)c2c[nH]c3ccc(Cl)cc23)c2ccccc2)c1` (centres unmarked) [CPD-086]: the pEC50 is 7.40 with DENV-2 NGC, 6.01 in data set [1], 5.98 in data set [2] and 5.45 in data set [3]. For the same molecule, the CC50 at 4 days in “in vitro” was determined as 12 µM.
Consider `COc1cccc(NC(C(=O)c2c[nH]c3ccc(F)cc23)c2cccnc2)c1` (centres unmarked) [CPD-151], for which the pEC50 in the data set with DENV-2 NGC was 7.05; in data set [1], 6.28; in data set [2], 5.68; in data set [3], 5.31. In “in vitro”, this molecule had a CC50 at 4 days of over 133 µM.
Turning to `COc1cc(CO)cc(NC(C(=O)c2c[nH]c3ccccc23)c2cc3ccccn3n2)c1` (centres unmarked) [CPD-289], the pEC50 with DENV-2 NGC was 7.22; in data set [1], 6.10; in data set [2], 6.04; in data set [3], 4.99. In addition, the CC50 at 4 days in “in vitro” worked out at 68 µM.
With `COc1cccc(NC(C(=O)c2cn(C)c3ccc(F)cc23)c2ccccc2)c1` (centres unmarked) [CPD-137], the negative-log EC50 (pEC50) with DENV-2 NGC was 7.30; in data set [1], 6.17; in data set [2], 5.42; in data set [3], 5.56. The molecule also yielded a CC50 at 4 days in “in vitro” of over 128 µM.
As to `COc1cc(CO)cc(NC(C(=O)c2c[nH]c3ccccc23)c2ccc(F)cc2)c1` (centres unmarked) [CPD-313], the negative-log EC50 (pEC50) with DENV-2 NGC was 7.40; in data set [1], 6.14; in data set [2] it was 5.95; in data set [3], 5.23. The molecule further displayed a CC50 at 4 days in “in vitro” of 58 µM.
For the molecule `COc1cccc(NC(C(=O)c2c[nH]c3ccc(F)cc23)c2cnc(OC)cn2)c1` (centres unmarked) [CPD-295], the pEC50 was 7.52 in the data set with DENV-2 NGC, 6.47 in data set [1], 5.86 in data set [2] and 5.20 in data set [3]. Besides, in the data set “in vitro”, it took 18 µM to reach half-maximal cytotoxicity (CC50 at 4 days).
In the case of `COc1cc(NC(C(=O)c2c[nH]c3nc(C)ccc23)c2ccccc2)cc(OC)c1` (centres unmarked) [CPD-232], the pEC50 with DENV-2 NGC is 7.00; in data set [1] it was 6.07; in data set [2], 5.57; in data set [3], 5.94. This molecule displayed a CC50 at 4 days in the data set “in vitro” of over 125 µM.
For `COc1cc(CO)cc(NC(C(=O)c2c[nH]c3ccc(F)cc23)c2ccccc2)c1` (centres unmarked) [CPD-296], in that order: 7.30, 6.00, 5.74, 5.48 and 31 µM.
`COc1cc(NC(C(=O)c2c[nH]c3ccccc23)c2ccc(OC)nc2)cc(OCCO)c1` (centres unmarked) [CPD-291]: the pEC50 in the data set with DENV-2 NGC is 7.22; in data set [1], 6.10; in data set [2] it was 6.10; in data set [3], 5.06. This molecule showed a CC50 at 4 days in the data set “in vitro” of 53 µM.
For the molecule `COc1cccc(NC(C(=O)c2c[nH]c3ccccc23)c2ccc(C(F)(F)F)nc2)c1` (centres unmarked) [CPD-315], the pEC50 was 7.30 in the data set with DENV-2 NGC, 6.42 in data set [1], 6.00 in data set [2] and 5.71 in data set [3]. The CC50 at 4 days in the data set “in vitro” came out at 13 µM.
As for `COc1cncc(NC(C(=O)c2c[nH]c3ccccc23)c2ccc(C#N)cc2)c1` (centres unmarked) [CPD-159], the pEC50 in the data set on DENV-2 NGC was 6.96; in data set [1], 5.83; in data set [2], 5.50; in data set [3], 5.16. Further, the CC50 at 4 days in the data set “in vitro” is 67 µM.
For `COc1cc(NC(C(=O)c2c[nH]c3c(C)cccc23)c2ccccc2)cc(OCCO)c1` (centres unmarked) [CPD-331], in that order: 7.70, 6.41, 6.41, 5.48 and 14 µM.
The matching figures for `COc1cccc(NC(C(=O)c2c[nH]c3ccccc23)c2cnc(OC)nc2)c1` (centres unmarked) [CPD-240]: 6.96, 5.92, 5.62, 5.06 and 63 µM.
On to `COc1cc(NC(C(=O)c2c[nH]c3cc(F)ccc23)c2ccccc2)cc(OCCO)c1` (centres unmarked) [CPD-316], for which the pEC50 with DENV-2 NGC was 7.70; in data set [1] it was 6.41; in data set [2] it was 6.49; in data set [3], 5.35. Moreover, it took 29 µM to reach half-maximal cytotoxicity in “in vitro” (CC50 at 4 days).
For the molecule `COc1cc(NC(C(=O)c2c[nH]c3ccccc23)c2ccccc2)cc(OC)n1` (centres unmarked) [CPD-319], the pEC50 is 6.92 in the data set with DENV-2 NGC, 5.55 in data set [1], 5.77 in data set [2] and 5.64 in data set [3]. For the same molecule, the CC50 at 4 days in “in vitro” came out at 20 µM.
As for `COc1cccc(NC(C(=O)c2c[nH]c3ccccc23)c2cccnn2)c1` (centres unmarked) [CPD-317], the pEC50 is 6.24 in the data set on DENV-2 NGC, 5.38 in data set [1], 4.89 in data set [2] and 4.97 in data set [3]. It took 88 µM to reach half-maximal cytotoxicity in “in vitro” (CC50 at 4 days).
For `COc1cccc(NC(C(=O)c2c[nH]c3ccccc23)c2cccc3ccnn23)c1` (centres unmarked) [CPD-043], the pEC50 with DENV-2 NGC is 6.54; in data set [1] it was 5.47; in data set [2], 5.23; in data set [3], 5.32. The molecule also returned a CC50 at 4 days in the data set “in vitro” of over 126 µM.
For `COc1cc(CO)cc(NC(C(=O)c2c[nH]c3ccccc23)c2ccc(F)nc2)c1` (centres unmarked) [CPD-333], in that order: 7.40, 6.41, 6.31, 5.23 and 90 µM.
Take `COc1cccc(NC(C(=O)c2c[nH]c3ccccc23)c2cncc(C)c2)c1` (centres unmarked) [CPD-309]: the pEC50 with DENV-2 NGC was 6.27; in data set [1], 6.21; in data set [2], 6.15; in data set [3], 5.55. This molecule had a CC50 at 4 days in “in vitro” of 74 µM.
The matching figures for `COc1cccc(NC(C(=O)c2c[nH]c3c(F)cccc23)c2cccnc2)c1` (centres unmarked) [CPD-153]: 6.54, 5.20, 5.65, 5.43 and over 133 µM.
In the case of `COc1cccc(NC(C(=O)c2c[nH]c3ccc(F)cc23)c2ccc(OC)nc2)c1` (centres unmarked) [CPD-154], the pEC50 with DENV-2 NGC was 7.22; in data set [1], 5.41; in data set [2], 5.36; in data set [3], 5.01. Half-maximal cytotoxicity in the data set “in vitro” (CC50 at 4 days) was put at 44 µM.

The record behind these values is patent US12012411B2, “Viral replication inhibitors” (Katholieke Universiteit Leuven, priority 2011, dated 2024).
